Laboratory results reported in paper PMC7069944, “Amino acid levels determine metabolism and CYP450 function of hepatocytes and hepatoma cell lines” (Nature Communications, 2020).
Several values for one entry are separate records, joined by “and”; a condition that tells them apart may be missing. Equal values may be shown once.

Columns and labels:
HC3X = test: Repeated-exposure DILI training compounds, resazurin conversion, HC3X; details: for resazurin conversion (Supplementary Figure 7D): HC3X AAGLY D40, replicates, listed as Ximelatagran
How it was run: (§1)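 PSC-derived hepatocyte-like cells were differentiated in 384-well plates, and drugs were added after 8 h of attachment. Viability was measured by resazurin conversion and related to therapeutic Cmax values, with untreated wells as negative control.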

HepG2 = test: Repeated-exposure DILI training compounds, resazurin conversion, HepG2; details: replicates, listed as Ximelatagran
How it was run: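 Viability by resazurin conversion, correlated with Cmax, was assessed after drug exposure in 384-well cultures of differentiated PSCs and of HepG2 (40,000 cells/well). Dosing began 8 h post-attachment, with untreated wells as negative control.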

HLC = test: Repeated-exposure DILI training compounds, resazurin conversion, HLC; details: replicates, listed as Ximelatagran
How it was run: as §1

HC6X = test: Repeated-exposure DILI training compounds, resazurin conversion, HC6X; details: replicates, listed as Ximelatagran
How it was run: as §1

CCOC(=O)CN[C@@H](C(=O)N1CC[C@H]1C(=O)NCc1ccc(/C(N)=N\O)cc1)C1CCCCC1 [ximelagatran]
resazurin conversion (Supplementary Figure 7D) (HC3X; 10 uM): 103.6 and 112.1 and 116.7 and 110.7 and 88 and 80.4 | resazurin conversion (Supplementary Figure 7D) (HC3X; 30 uM): 112.5 and 93.4 and 100.9 and 65.5 and 110.1 and 86 | resazurin conversion (Supplementary Figure 7D) (HC3X; 50 uM): 112.6 and 97.1 and 99.6 and 78.9 and 96.7 and 79.4 | resazurin conversion (Supplementary Figure 7D) (HC3X; 100 uM): 99 and 94.2 and 111.5 and 113 and 97.2 and 95.7 | resazurin conversion (Supplementary Figure 7D) (HC3X; 300 uM): 105.9 and 98.6 and 86.6 and 80.1 and 95.6 and 93.9 | resazurin conversion (Supplementary Figure 7D) (HC3X; 500 uM): 93.3 and 104.7 and 99.6 and 103.7 and 88.7 and 115 | resazurin conversion (Supplementary Figure 7D) (HC3X; 1000 uM): 89.5 and 109.6 and 93 and 88.2 and 108.4 and 91.9 | resazurin conversion (Supplementary Figure 7D) (HC3X; 2000 uM): 61.4 and 104.7 and 97.3 and 97.1 and 64.3 and 60.4 | resazurin conversion (Supplementary Figure 7D) (HC3X; 4000 uM): 43.9 and 48.4 and 38 and 42.8 and 47.8 and 45 | IC50/Cmax (HC3X; human): 2438.67 | resazurin conversion (Supplementary Figure 7D) (HepG2; HepG2 AAGLY D30, 10 uM): 94.6 and 101.9 and 93.6 | resazurin conversion (Supplementary Figure 7D) (HepG2; HepG2 AAGLY D30, 30 uM): 92.6 and 98.4 and 83.3 and 96.4 and 96.6 and 94.8 | resazurin conversion (Supplementary Figure 7D) (HepG2; HepG2 AAGLY D30, 50 uM): 93.8 and 101.4 and 83.8 and 100.6 and 100.8 and 103 | resazurin conversion (Supplementary Figure 7D) (HepG2; HepG2 AAGLY D30, 100 uM): 87.1 and 96.4 and 79.9 and 96 (2×) and 99.8 | resazurin conversion (Supplementary Figure 7D) (HepG2; HepG2 AAGLY D30, 300 uM): 79.2 and 92.1 and 83.1 and 91.5 (2×) and 86.4 | resazurin conversion (Supplementary Figure 7D) (HepG2; HepG2 AAGLY D30, 500 uM): 73.8 and 82.7 and 72.5 and 77.3 and 81.8 and 90.8 | resazurin conversion (Supplementary Figure 7D) (HepG2; HepG2 AAGLY D30, 1000 uM): 33.4 and 32.8 and 32.2 and 33.5 and 33 and 34 | resazurin conversion (Supplementary Figure 7D) (HepG2; HepG2 AAGLY D30, 2000 uM): 32.1 and 33.4 and 32.3 and 33 and 31.5 and 35.4 | resazurin conversion (Supplementary Figure 7D) (HepG2; HepG2 AAGLY D30, 4000 uM): 32.2 and 33.1 and 31.8 and 32.9 (2×) and 31.4 | resazurin conversion (Supplementary Figure 7D) (HepG2; HepG2 CTL D7, 10 uM): 100 | resazurin conversion (Supplementary Figure 7D) (HepG2; HepG2 CTL D7, 30 uM): 113.6 and 106.8 and 92.5 and 99.4 and 103.9 and 98.2 | resazurin conversion (Supplementary Figure 7D) (HepG2; HepG2 CTL D7, 50 uM): 100.3 and 102 and 94.9 and 85.4 and 97.6 and 93 | resazurin conversion (Supplementary Figure 7D) (HepG2; HepG2 CTL D7, 100 uM): 99.5 and 95.1 and 87 and 84.8 and 92.1 and 91.7 | resazurin conversion (Supplementary Figure 7D) (HepG2; HepG2 CTL D7, 300 uM): 98.7 and 94.5 and 90.1 and 84 and 87.6 and 84.8 | resazurin conversion (Supplementary Figure 7D) (HepG2; HepG2 CTL D7, 500 uM): 86.4 and 89.2 and 85.2 and 81.4 and 85.9 and 81.5 | resazurin conversion (Supplementary Figure 7D) (HepG2; HepG2 CTL D7, 1000 uM): 71.2 and 56.7 and 60.3 and 67.6 and 70.2 and 66 | resazurin conversion (Supplementary Figure 7D) (HepG2; HepG2 CTL D7, 2000 uM): 35.7 and 15 and 22 and 29.6 and 28.3 and 27.1 | resazurin conversion (Supplementary Figure 7D) (HepG2; HepG2 CTL D7, 4000 uM): 7.9 (2×) and 7.7 (3×) and 8 | resazurin conversion (Supplementary Figure 7D) (HLC; HLC AAGLY D40, 30 uM): 87.9 and 61.4 and 89.7 and 86.8 and 95.5 and 101.7 | resazurin conversion (Supplementary Figure 7D) (HLC; HLC AAGLY D40, 50 uM): 102.7 and 110.5 and 84 and 85.7 and 101.4 and 47.2 | resazurin conversion (Supplementary Figure 7D) (HLC; HLC AAGLY D40, 100 uM): 101.8 and 83.1 and 91.6 and 97.8 and 108.1 and 71.2 | resazurin conversion (Supplementary Figure 7D) (HLC; HLC AAGLY D40, 300 uM): 102 and 100.4 and 103.4 and 99.6 and 91.1 and 43.4 | resazurin conversion (Supplementary Figure 7D) (HLC; HLC AAGLY D40, 500 uM): 103.1 and 102.1 and 106.2 and 106.4 and 103.3 and 93.1 | resazurin conversion (Supplementary Figure 7D) (HLC; HLC AAGLY D40, 1000 uM): 124.2 and 94.4 and 100.6 and 122 and 108.3 and 107.9 | resazurin conversion (Supplementary Figure 7D) (HLC; HLC AAGLY D40, 2000 uM): 74 and 131.7 and 126.4 and 135.7 and 116.8 and 129.6 | resazurin conversion (Supplementary Figure 7D) (HLC; HLC AAGLY D40, 4000 uM): 129.4 and 115 and 25.5 and 112.7 and 127.1 and 50.9 | resazurin conversion (Supplementary Figure 7D) (HLC; HLC LDM D40, 10 uM): 103 and 119.6 and 106.5 and 118.8 | resazurin conversion (Supplementary Figure 7D) (HLC; HLC LDM D40, 30 uM): 98.9 and 98.8 and 106 and 104.1 and 100.4 and 102.4 | resazurin conversion (Supplementary Figure 7D) (HLC; HLC LDM D40, 50 uM): 120.6 and 118.1 and 72.7 and 111.9 and 69.1 and 123.9 | resazurin conversion (Supplementary Figure 7D) (HLC; HLC LDM D40, 100 uM): 93.8 and 126.7 and 78.4 and 121.1 and 87.3 and 126.3 | resazurin conversion (Supplementary Figure 7D) (HLC; HLC LDM D40, 300 uM): 125.4 and 106 and 125.6 and 93.6 and 136.9 and 112.2 | resazurin conversion (Supplementary Figure 7D) (HLC; HLC LDM D40, 500 uM): 130.3 and 128.1 and 99.5 and 124.6 and 98 and 115.9 | resazurin conversion (Supplementary Figure 7D) (HLC; HLC LDM D40, 1000 uM): 132.9 and 140 and 126.4 and 146.9 and 116.4 and 158.5 | resazurin conversion (Supplementary Figure 7D) (HLC; HLC LDM D40, 2000 uM): 87.8 and 64.2 and 95.2 and 125.1 and 69.7 and 117.1 | resazurin conversion (Supplementary Figure 7D) (HLC; HLC LDM D40, 4000 uM): 52.7 and 74.5 and 71.5 and 69.4 and 112 and 163.8 | resazurin conversion (Supplementary Figure 7D) (HC6X; HC6X AAGLY D40, 10 uM): 93.8 and 58.7 and 78.1 and 118.1 | resazurin conversion (Supplementary Figure 7D) (HC6X; HC6X AAGLY D40, 30 uM): 71.1 and 54.3 and 108.4 and 77.4 and 109.2 and 98.7 | resazurin conversion (Supplementary Figure 7D) (HC6X; HC6X AAGLY D40, 50 uM): 68.8 and 53.6 and 125.9 and 98.4 and 222.1 and 82.6 | resazurin conversion (Supplementary Figure 7D) (HC6X; HC6X AAGLY D40, 100 uM): 99.7 and 88.3 and 135.4 and 113.5 and 107.4 and 93.9 | resazurin conversion (Supplementary Figure 7D) (HC6X; HC6X AAGLY D40, 300 uM): 82 and 93.2 and 129.1 and 140.3 and 141.2 and 166.5 | resazurin conversion (Supplementary Figure 7D) (HC6X; HC6X AAGLY D40, 500 uM): 65.3 and 103.3 and 98.2 and 91.7 and 122.8 and 148.3 | resazurin conversion (Supplementary Figure 7D) (HC6X; HC6X AAGLY D40, 1000 uM): 71.6 and 76.5 and 78.4 and 144 and 115.7 and 139.1 | resazurin conversion (Supplementary Figure 7D) (HC6X; HC6X AAGLY D40, 2000 uM): 61.7 and 53.9 and 78.6 and 67 and 113.9 and 90 | resazurin conversion (Supplementary Figure 7D) (HC6X; HC6X AAGLY D40, 4000 uM): 54.4 and 81.3 and 84.4 and 85.7 and 55.2 and 56.8 | resazurin conversion (Supplementary Figure 7D) (HC6X; HC6X AAGLY D40 Remove dox, 30 uM): 72.9 and 78.3 and 89.9 and 101.5 and 95.4 and 95.8 | resazurin conversion (Supplementary Figure 7D) (HC6X; HC6X AAGLY D40 Remove dox, 50 uM): 55.3 and 86.1 and 70.5 and 85.8 and 92.1 and 68.6 | resazurin conversion (Supplementary Figure 7D) (HC6X; HC6X AAGLY D40 Remove dox, 100 uM): 82.1 and 85 and 79 and 110.7 and 88.3 and 96.6 | resazurin conversion (Supplementary Figure 7D) (HC6X; HC6X AAGLY D40 Remove dox, 300 uM): 99.4 and 92.8 and 102.5 and 91.4 and 94.8 and 77.9 | resazurin conversion (Supplementary Figure 7D) (HC6X; HC6X AAGLY D40 Remove dox, 500 uM): 78.1 and 81.7 and 105.3 and 97 and 101.1 and 82.7 | resazurin conversion (Supplementary Figure 7D) (HC6X; HC6X AAGLY D40 Remove dox, 1000 uM): 77.2 and 89.1 and 81.5 and 96.6 and 108.9 and 116.8 | resazurin conversion (Supplementary Figure 7D) (HC6X; HC6X AAGLY D40 Remove dox, 2000 uM): 95.3 and 105.5 and 72.8 and 94.8 and 76.2 and 80.9 | resazurin conversion (Supplementary Figure 7D) (HC6X; HC6X AAGLY D40 Remove dox, 4000 uM): 46.6 and 40.3 and 96 and 68.1 and 83.6 and 42.4
